Reference: US20230003721A1, “MITOTHERAPEUTICS FOR THE TREATMENT OF BRAIN DISORDERS” (The University of Florida Research Foundation, Inc., priority 2019, published 2023)
Counter-ions that a name gives are not always drawn. Like-named read-outs stand apart in the source and are kept apart here.

How the values were obtained:
[1] = system: primary forebrain neurons; assay: cells; conditions: 24 h; for EC50: Mus musculus, Neuron; for Dendritic Mt CA / Neurite Area: rescreen, 12.5 μM, vs DMSO wells
[2] = system: primary neurons; conditions: 75 μM peroxide, 12.5 μM compound, 48 h
[3] = system: isolated forebrain mitochondria; assay: ATP production of isolated mitochondria (luciferase-based kinetic assay); format: biochemical, mouse
Procedure: Isolation of mitochondria. For the ATP synthesis experiments of FIG. 6, forebrains from P0 pups were dissected as described above. 2×10^7 cells were harvested for high-purity mitochondrial isolation using the Qiagen QProteome kit. The mitochondrial pellet was resuspended in 500 μl mitochondria storage buffer (provided by kit) and kept on ice until further use.
ATP production of isolated forebrain mitochondria of P0 pups was measured by ATP Determination Kit (Molecular Probes). […] The reactions were initiated by the addition of 1 mM ADP (deprived of ATP contamination by adding 3 U/ml hexokinase to 10 mM of ADP in 50 mM Tris-HCl, 20 mM MgCl2 and 22 mM glucose, incubating the solution at 37° C. for 1 hr and heat inactivating the hexokinase at 100° C. for 3 min). Luminescence was recorded every 15-30 sec for 1 hr at 580±40 nm.

[4] = system: primary neurons; assay: Oxygen consumption rate (OCR) of permeabilized primary neurons; format: cell-based, mouse
Procedure: The oxygen consumption rate (OCR) of permeabilized neurons and isolated brain mitochondria (from 9-month old mice) was measured by the XF96 Extracellular Flux analyzer (Seahorse Bioscience). […] Prior to the start of the OCR measurement, all but 30 μl of Neurobasal A/B27 culture medium was removed from each well. Cells were washed twice with pre-warmed MAS-BSA assay medium (4 mg/ml fatty-acid free BSA, pH=7.2) and incubated in 180 μl at 37° C. for 5 min. Following the cartridge calibration, cells were loaded into the XF96 Extracellular Flux analyzer and further equilibrated for 10 min with two cycles of 3 min mixing and 2 min resting prior to the first measurement of basal respiration. OCR were measured at 37° C. under basal conditions followed by the sequential injection of pre-warmed 10× mitochondrial substrates/ADP (20 μl), oligomycin (22 μl), FCCP (24 μl), and rotenone/antimycin A (26 μl). The final concentrations of injected compounds were as follows: 10 mM mitochondrial substrates (pyruvate/malate or succinate), 1 mM ADP, 1.5 μM oligomycin, 3 μM FCCP, 2 μM rotenone/antimycin A. Saponin (25 μg/ml) was co-injected with substrate/ADP to permeabilize the cells and stimulate ADP-dependent respiration. Two baseline measurements were obtained prior to any injection and 2 response measurements were collected after each injection except for after FCCP addition which consisted of 1 measurement (9 total measurements in each assay). Each measurement cycle consisted of 2 min mixing, 2 min waiting, and 3 min data acquisition. This protocol allowed for sequential assessment of basal cell respiration, maximal mitochondrial respiratory capacity (State 3 with substrate/ADP), proton leak (State 4o with oligomycin), uncoupled maximal respiration (State 3U with FCCP) and non-mitochondrial respiration with the Complex I/Complex III inhibitors, rotenone/antimycin A. Cells were washed twice with MAS buffer to remove residue BSA contained in the assay medium, lysed in 50 μl lysis buffer (25 mM HEPES, 1 mM EGTA, 1 mM EDTA, 0.1% SDS, 1% NP-40, 1× protease and phosphatase inhibitor, pH 7.0 adjusted with NaOH) and total protein was determined by BCA assay. Oxygen consumption was normalized to total protein content as pmol O2/min/ug total protein.
Oxygen consumption rate (OCR) or extracellular acidification rate (ECAR) measurements from permeabilized neurons and isolated brain mitochondria were performed using the XF96 Extracellular Flux analyzer (Seahorse Bioscience). For assays using cultured neurons, primary neurons were dissociated from the forebrains of P0 pups, seeded at 1.9×10^4/well (PDL-coated XF96 plate), cultured to DIV13 and incubated with selected compounds or DMSO (0.1%) for 24 h. Prior to the start of the OCR measurement, all but 30 μl of Neurobasal A/B27 culture medium was removed from each well. Cells were washed twice with pre-warmed MAS-BSA assay medium (70 mM sucrose, 220 mM mannitol, 10 mM KH2PO4, 5 mM MgCl2, 2 mM HEPES and 1 mM EGTA, 4 mg/ml fatty-acid free BSA, pH=7.2 adjusted using KOH) and incubated in 180 ul MAS-BSA medium at 37° C. in a CO2-free incubator for 5 m. […] OCR and ECAR were measured at 37° C. under basal conditions followed by the sequential injection of pre-warmed 10× mitochondrial substrates/ADP (20 μl), oligomycin (22 μl), FCCP (24 μl), and rotenone/antimycin A (26 μl).

[5] = system: primary cortical neurons; conditions: Ding et al. 2011; cited from earlier work
[6] = system: Drosophila model for AD; assay: Drosophila model for AD: neuronal mitochondrial morphology; format: in vivo; conditions: cell bodies of neurons; 100 micromolar, 15 days-of-age
Excerpt: To assay representative compounds in this example, we employed a Drosophila model for AD (X. Wang et al., Mol. Neurobiol. […] Flies expressing this toxic protein show: […] Drugs that show efficacy therefore: enlarge neuronal mitochondria (increased volume, increased surface area, increased length), reduce sphericity, and reduce the number of mitochondria compared to untreated Alzheimer's flies. The AD model flies were collected immediately after eclosion from the pupal case and transferred to food that was laced with drug at 100 micromolar concentration. The flies were aged to 15 days-of-age: this is when the mitochondrial pathology is very robust. We compared the morphology of mitochondria collected from these flies treated with drug and compared them to the mitochondria of flies that remained untreated.

[7] = system: NRF2-mediated antioxidant response; conditions: WO2012149478A3; cited from earlier work
[8] = read-out: Elongation (Dend Mt length) EC50
[9] = read-out: Health (Ax Mt Circularity) EC50
[10] = read-out: Mt Content (Dend Mt CA) EC50
[11] = read-out: Sprouting (Neurite Area) EC50

Q: For `CCCCOc1ccc(C(=O)CCN2CCCCC2)cc1` [DYCLONINE HYDROCHLORIDE], which EC50 [1, 8] is on record?
A: 1500 nM

Q: What about the EC50 [1, 9] of the same compound?
A: 200 nM

Q: What about the EC50 [1, 10] of the same compound?
A: 200 nM

Q: And the EC50 [1, 11]?
A: > 25000 nM

Q: What about the “Dendritic Mt CA” value [1] of the same compound?
A: 3.89 robust Z-scores

Q: And the “Neurite Area” value [1]?
A: 0.33 robust Z-scores

Q: And the “protection from peroxide (PO) induced mitochondrial fragmentation” value [2]?
A: fully protected

Q: What about the “ATP production kinetics, amplitude of single exponential fit” value ([3]; 12 μM, starting 20 min after addition, DMSO 22498±358) of the same compound?
A: 28882±673

Q: And the “ATP production of isolated mitochondria (direct effect)” value ([3]; 12.5 μM, within the 45-min measurement period, vs DMSO)?
A: significantly increased

Q: What about the “State 3 and 3u respiration stimulated by either Complex I or Complex II substrates” value ([4]; 10 μM, 24 h, cultured neurons) of the same compound?
A: significant increase

Q: What about the OCR ([4]; oxygen consumption rate, significant change) of the same compound?
A: increased

Q: What does the source list for `O=c1c(-c2ccc(O)cc2)coc2cc(O)cc(O)c12` [GENISTEIN]?
A: ΔΨm in primary cortical neurons treated with Aβ peptide [5]: increase ΔΨm; Dendritic Mt CA [1]: 2.93 robust Z-scores; Neurite Area [1]: 0.34 robust Z-scores; Surface area of mitochondria, p (treated vs untreated) [6]: p = 0.083

Q: Which results are given for `COC(=O)[C@@H]1[C@H]2C[C@H]3c4[nH]c5ccccc5c4CCN3C[C@@H]2CC[C@@H]1O` [YOHIMBINE HYDROCHLORIDE]?
A: EC50 [1, 8]: 200 nM; EC50 [1, 9]: 1300 nM; EC50 [1, 10]: 10 nM; EC50 [1, 11]: 1700 nM; Dendritic Mt CA [1]: 3.44 robust Z-scores; Neurite Area [1]: 2.50 robust Z-scores; neuroprotection by inducing the NRF2-mediated antioxidant response [7]: neuroprotective
